Data set [1] deals with MDA-MB-231. Briefly: Growth inhibition of human MDA-MB-231 cells assessed as reduction in cell viability incubated for 48 hrs by PrestoBlue dye based florescence assay. The conditions noted are these: MDA-MB-231, 48 h. Format: functional.
Data set [2] has as its system MDA-MB-231. Nature of the data set: Induction of apoptosis in human MDA-MB-231 cells assessed as increase in caspase-3/7 activity incubated for 24 hrs by luminescence based assay relative to control. The data set is classed as functional.
For data set [3], the system named is MDA-MB-231. Briefly: Induction of apoptosis in human MDA-MB-231 cells assessed as increase in caspase-3/7 activity incubated for 24 hrs by luminescence based assay. The data set is classed as functional, cell-based.
Data set [4] in a line: Stability in mouse plasma incubated at 37 degC by LC/MS method. Format: ADME, cell-free. The note with it: read-out: Stability.

For orientation: EC50 means the concentration at which the effect is half-maximal.

`CCCCCCCCCCCCCCCCCCCCCCCC(=O)NCCCC[C@H](NC(=O)[C@H](C)NC)C(=O)N1CCC[C@H]1C(=O)NC(c1ccccc1)c1ccccc1`: the half-maximal effective concentration (EC50) in the data set with MDA-MB-231 [1] was more than 100 µM.
As for `CN[C@@H](C)C(=O)N[C@@H](CCCCNC(=O)O[C@H]1CC[C@@]2(C)C(=CCC3C2CC[C@@]2(C)C3CC[C@@H]2[C@H](C)CCCC(C)C)C1)C(=O)N1CCC[C@H]1C(=O)NC(c1ccccc1)c1ccccc1` (some centres not stated), in the data set on MDA-MB-231 [1], the 50% effective concentration (EC50) worked out at 9.7 µM.
The same measure, in the same setting: under `CN[C@@H](C)C(=O)N[C@@H](CS)C(=O)N1CCC[C@H]1C(=O)NC(c1ccccc1)c1ccccc1` stands more than 100 µM.
For `CN[C@@H](C)C(=O)N[C@@H](CSCCS(=O)(=O)CCSC[C@H](NC(=O)[C@H](C)NC)C(=O)N1CCC[C@H]1C(=O)NC(c1ccccc1)c1ccccc1)C(=O)N1CCC[C@H]1C(=O)NC(c1ccccc1)c1ccccc1`, in the data set with MDA-MB-231 [1], the 50% effective concentration (EC50) came out at 52.4 µM.
Still for that read-out and setting: under `CN[C@@H](C)C(=O)N[C@@H](CSCc1cccc(CSC[C@H](NC(=O)[C@H](C)NC)C(=O)N2CCC[C@H]2C(=O)NC(c2ccccc2)c2ccccc2)c1)C(=O)N1CCC[C@H]1C(=O)NC(c1ccccc1)c1ccccc1` stands 7.4 µM; under `CN[C@@H](C)C(=O)N[C@@H](CSCc1ccc(CSC[C@H](NC(=O)[C@H](C)NC)C(=O)N2CCC[C@H]2C(=O)NC(c2ccccc2)c2ccccc2)cc1)C(=O)N1CCC[C@H]1C(=O)NC(c1ccccc1)c1ccccc1`, 9.6 µM.
Consider `CN[C@@H](C)C(=O)N[C@@H](CSCc1ccc(-c2ccc(CSC[C@H](NC(=O)[C@H](C)NC)C(=O)N3CCC[C@H]3C(=O)NC(c3ccccc3)c3ccccc3)cc2)cc1)C(=O)N1CCC[C@H]1C(=O)NC(c1ccccc1)c1ccccc1`, for which the EC50 with MDA-MB-231 [1] is 4 µM. In addition, the “fold change (FC)” value in the data set with MDA-MB-231 [2] came to 2.7.
`CN[C@@H](C)C(=O)N[C@@H](CCCCNC(=O)NCCCC[C@H](NC(=O)[C@H](C)NC)C(=O)N1CCC[C@H]1C(=O)NC(c1ccccc1)c1ccccc1)C(=O)N1CCC[C@H]1C(=O)NC(c1ccccc1)c1ccccc1`: the EC50 in the data set on MDA-MB-231 [1] is more than 100 µM.
For the compound `CCCCCCCCCCCCCCCC(=O)OCCN(CC(=O)NCCCC[C@H](NC(=O)[C@H](C)NC)C(=O)N1CCC[C@H]1C(=O)NC(c1ccccc1)c1ccccc1)CC(=O)NCCCC[C@H](NC(=O)[C@H](C)NC)C(=O)N1CCC[C@H]1C(=O)NC(c1ccccc1)c1ccccc1`, in the data set with MDA-MB-231 [1], the EC50 turned out to be 4.3 µM.
For `CCCCCCCCCCCCCCCCSCc1cc(CSC[C@H](NC(=O)[C@H](C)NC)C(=O)N2CCC[C@H]2C(=O)NC(c2ccccc2)c2ccccc2)cc(CSC[C@H](NC(=O)[C@H](C)NC)C(=O)N2CCC[C@H]2C(=O)NC(c2ccccc2)c2ccccc2)c1`, the EC50 in the data set with MDA-MB-231 [1] came out at 11.3 µM.
For the compound `CN[C@@H](C)C(=O)N[C@@H](CSCc1ccc(Oc2ccc(CSC[C@H](NC(=O)[C@H](C)NC)C(=O)N3CCC[C@H]3C(=O)NC(c3ccccc3)c3ccccc3)cc2)cc1)C(=O)N1CCC[C@H]1C(=O)NC(c1ccccc1)c1ccccc1`, the concentration for a half-maximal effect (EC50) with MDA-MB-231 [1] was 18.4 µM.
Consider `CN[C@@H](C)C(=O)N[C@@H](CCCCNC(=O)CCCCCCC(=O)NCCCC[C@H](NC(=O)[C@H](C)NC)C(=O)N1CCC[C@H]1C(=O)NC(c1ccccc1)c1ccccc1)C(=O)N1CCC[C@H]1C(=O)NC(c1ccccc1)c1ccccc1`, for which the 50% effective concentration (EC50) in the data set with MDA-MB-231 [1] was more than 100 µM.
On to `CN[C@@H](C)C(=O)N[C@@H](CCCCNC(=O)Nc1ccc(Oc2ccc(NC(=O)NCCCC[C@H](NC(=O)[C@H](C)NC)C(=O)N3CCC[C@H]3C(=O)NC(c3ccccc3)c3ccccc3)cc2)cc1)C(=O)N1CCC[C@H]1C(=O)NC(c1ccccc1)c1ccccc1`, for which, in the data set on MDA-MB-231 [1], the EC50 amounted to 14.4 µM.
On to `CCCCCCCCCCCCCCCC(=O)N(CC(=O)NCCCC[C@H](NC(=O)[C@H](C)NC)C(=O)N1CCC[C@H]1C(=O)NC(c1ccccc1)c1ccccc1)CC(=O)NCCCC[C@H](NC(=O)[C@H](C)NC)C(=O)N1CCC[C@H]1C(=O)NC(c1ccccc1)c1ccccc1`, for which the Activity entry with MDA-MB-231 [3] was “Dose-dependent effect”. Besides, in data set [4], the half-life was less than 31 h. Also, the EC50 with MDA-MB-231 [1] was 4.2 µM.
For `CN[C@@H](C)C(=O)N[C@@H](CCCCNC(=N)N)C(=O)N1CCC[C@H]1C(=O)NC(c1ccccc1)c1ccccc1`, in the data set with MDA-MB-231 [1], the concentration for a half-maximal effect (EC50) is more than 100 µM.
On to `CN[C@@H](C)C(=O)N[C@@H](CSCc1cccc(Cc2cccc(CSC[C@H](NC(=O)[C@H](C)NC)C(=O)N3CCC[C@H]3C(=O)NC(c3ccccc3)c3ccccc3)c2)c1)C(=O)N1CCC[C@H]1C(=O)NC(c1ccccc1)c1ccccc1`, for which the concentration giving a half-maximal response (EC50) in the data set on MDA-MB-231 [1] was more than 100 µM.
The same measure, in the same setting: then `CN[C@@H](C)C(=O)N[C@@H](CCCCNC(=O)Nc1ccc(NC(=O)NCCCC[C@H](NC(=O)[C@H](C)NC)C(=O)N2CCC[C@H]2C(=O)NC(c2ccccc2)c2ccccc2)cc1)C(=O)N1CCC[C@H]1C(=O)NC(c1ccccc1)c1ccccc1`, with 34.8 µM.
As for `CN[C@@H](C)C(=O)N[C@@H](CSSC(C)(C)C)C(=O)N1CCC[C@H]1C(=O)NC(c1ccccc1)c1ccccc1`, in the data set with MDA-MB-231 [1], the concentration for a half-maximal effect (EC50) is 49.9 µM.
As for `CN[C@@H](C)C(=O)N[C@@H](CCCCNC(=O)OCC1c2ccccc2-c2ccccc21)C(=O)N1CCC[C@H]1C(=O)NC(c1ccccc1)c1ccccc1`, the EC50 in the data set on MDA-MB-231 [1] was 19 µM.
Same read-out and setting: then `CN[C@@H](C)C(=O)N[C@@H](CO)C(=O)N1CCC[C@H]1C(=O)NC(c1ccccc1)c1ccccc1`, with more than 100 µM.
Regarding `CN[C@@H](C)C(=O)N[C@@H](CSCC(=O)NCCNC(=O)CSC[C@H](NC(=O)[C@H](C)NC)C(=O)N1CCC[C@H]1C(=O)NC(c1ccccc1)c1ccccc1)C(=O)N1CCC[C@H]1C(=O)NC(c1ccccc1)c1ccccc1`, the EC50 in the data set on MDA-MB-231 [1] was more than 100 µM.
For the compound `CN[C@@H](C)C(=O)N[C@@H](CCCCNC(=O)CNCC(=O)NCCCC[C@H](NC(=O)[C@H](C)NC)C(=O)N1CCC[C@H]1C(=O)NC(c1ccccc1)c1ccccc1)C(=O)N1CCC[C@H]1C(=O)NC(c1ccccc1)c1ccccc1`, in the data set with MDA-MB-231 [1], the 50% effective concentration (EC50) was more than 100 µM.
For the compound `CN[C@@H](C)C(=O)N[C@@H](CCCCNc1cc(NCCCC[C@H](NC(=O)[C@H](C)NC)C(=O)N2CCC[C@H]2C(=O)NC(c2ccccc2)c2ccccc2)c([N+](=O)[O-])cc1[N+](=O)[O-])C(=O)N1CCC[C@H]1C(=O)NC(c1ccccc1)c1ccccc1`, the “fold change (FC)” value in the data set with MDA-MB-231 [2] is listed as 2.7.
As for `CN[C@@H](C)C(=O)N[C@@H](CCCCN)C(=O)N1CCC[C@H]1C(=O)NC(c1ccccc1)c1ccccc1`, the EC50 in the data set with MDA-MB-231 [1] was more than 100 µM.

(Values after ChEMBL document CHEMBL3621092, “Lipid-conjugated Smac analogues” (Bioorg Med Chem Lett, 2015).)
